# According to patent publication US20260240846A1, “ZAK ALPHA KINASE (MAP3K20) INHIBITORS FOR USE IN THE TREATMENT OF ANEMIA” (UNIVERSIDAD DE MURCIA, priority 2023, published 2026):
# Experiments:
# caspase-1 [1] = assay: CASP1 activity in RPS19-edited model of DBA; assay type: cell-based, human; details: 0.1 μM nilotinib (FIG. 14D)
# Method: FIG. 14. Nilotinib promotes erythropoiesis in a human RPS19-edited model of DBA. RPS19 gene was edited in primary human CD34^+/CD133^+ cells with CRISPR-Cas9 technology and the cells were then differentiated with EPO for 13 days in the presence of absence of 0.1 μM nilotinib. (A) Representative flow cytometry dot plots of CD235-APC vs. CD71-FITC from control and RPS19-edited cells at 13 days of differentiation with EPO. (B) Cell surface expression of CD235A from control (mock) and RPS19-deficient cells treated with DMSO or nilotinib. (C) Percentage of mature erythrocytes (CD71^−/CD235A^+) vs. percentage of erythroid progenitors (CD71^+/CD235A^−) in RPS19-deficient cells treated with DMSO or 0.1 μM nilotinib. (D) CASP1 activity of control and RPS19-deficient cells treated with DMSO or 0.1 μM nilotinib. MFI, mean fluorescence intensity.
# K562 cells = assay: Transcriptomic analysis (RNA seq) and RT-qPCR of erythroid genes in K562 cells; assay type: cell-based, human
# Method: FIG. 12. Nilotinib promotes an erythroid gene expression profile in human K562 cells. K562 cells were pretreated with the indicated concentrations of 0.1 μM nilotinib, for 24 h and then differentiated with 50 μM hemin for additional 24 h. RNA was extracted and transcriptomic analysis performed by RNA seq. (A) Heatmap of selected erythroid genes. (B) Validation of nilotinib-induced erythroid genes by RT-qPCR. Each dot represents a biological replicate and the mean±SEM for each group is also shown.
# caspase-1 [2] = assay: Caspase-1 activity assay in zebrafish larvae (Z-YVAD-AFC); assay type: in vivo, Zebrafish (Danio rerio H.)
# Method: FIG. 6. NLRP1 is activated by phosphorylation of the linker domain after activation of ZAKα and pharmacological inhibition of this signaling pathway promotes erythropoiesis in DBA. (A-D) Number of neutrophils (A-C), and caspase-1 activity (D) in 2 dpf larvae obtained by injection of one-cell stage embryos with human NLRP1 (wild type-WT, S107A and S107D) and treated from 1 to 2 dpf by bath immersion with 1 μM nilotinib (B-D). Representative images of neutrophils (arrows) are also shown in C. (E, F) BMMCs from a DBA patient were incubated for 2 weeks in human methylcellulose complete medium at 37° C. in the presence or absence of the indicated concentrations of nilotinib, and colonies were counted using standard morphological criteria. Each dot represents one individual and the mean±SEM for each group is also shown. P values were calculated by one-way ANOVA and Tukey's multiple range test. n.s., non-significant; *P<0.05; **P<0.01; ***P<0.001; ****P<0.0001. […]
# Caspase-1 activity was determined with the fluorometric substrate Z-YVAD 7-Amido-4-trifluoromethylcoumarin (Z-YVAD-AFC, caspase-1 substrate VI, Calbiochem). […] After incubation, the fluorescence of AFC released from the Z-YVAD-AFC substrate was measured with a FLUOstart spectrofluorometer (BGM, LabTechnologies) at an excitation wavelength of 405 nm and an emission wavelength of 492 nm.
# HSPCs from DBA patients = assay: Colony assay of PBMCs from DBA patients in methylcellulose medium; assay type: cell-based, human; details: 2 weeks, indicated concentrations (FIG. 13A)
# Method: FIG. 13. […] PBMCs from DBA patients were incubated for 2 weeks in human methylcellulose complete medium at 37° C. in the presence or absence of the indicated concentrations of nilotinib, imatinib, dasatinib, bosutinib and ponatinib, and the number of erythroid (A) and myeloid (B) colonies counted using standard morphological criteria. Each dot represents one patient and the means±SEM for each group is also shown.
structure (smiles),measurement,setting,value
Cc1cn(-c2cc(NC(=O)c3ccc(C)c(Nc4nccc(-c5cccnc5)n4)c3)cc(C(F)(F)F)c2)cn1 [nilotinib],exacerbated caspase-1 activity of RPS19-deficient cells,caspase-1 [1],reduced to control levels
same,transcript levels of erythroid genes (RT-qPCR),K562 cells; K562 cells incubated with nilotinib,increased transcript levels
same,expression of erythroid genes (transcriptomic analysis),"K562 cells; K562 cells, 0.1 μM nilotinib 24 h, control cells and upon hemin 24 h, RNA seq",robustly induced
same,caspase-1 activation induced by NLRP1 with phosphomimetic S107D mutation,"caspase-1 [2]; larvae expressing human NLRP1 S107D, 1 μM nilotinib 1 to 2 dpf",failed to reverse
same,caspase-1 activation induced by wild type NLRP1,"caspase-1 [2]; larvae expressing human wild type NLRP1, 1 μM nilotinib 1 to 2 dpf",able to abrogate
same,defective erythropoiesis of HSPCs from DBA patients (erythroid colonies),HSPCs from DBA patients,alleviated defective erythropoiesis
